Data as given in patent US8501770B2 (ArQule, Inc., priority 2009, dated 2013).

Tests used:
[1] = molecular target: T1, Full-length inactive AKT1 (Homo sapiens, UniProt P31749); test: Inactive Akt HTRF Assay (Akt1)
Description: AKT1 activity was assayed using CisBio KinEASE™ HTRF Assay technology. This technology utilizes a proprietary biotinylated peptide substrate (STKS3), streptavidin labeled XL665 antibody, and STK antibody-Eu^3+-cryptate. AKT1 activation was achieved by the addition of the activating kinases PDK1 and MAPKAPK2, lipid vesicles, and ATP. The extent of STKS3 biotinylated peptide phosphorylation was determined using a phospho-STK antibody-Eu^3+-cryptate and streptavidin labeled XL665 antibody. XL665 was stimulated by Eu^3+-cryptate resulting in a TR-FRET signal proportional to the SKS3 phosphorylation level.

[2] = molecular target: T1, Full-length inactive AKT1; test: Inactive Akt Alpha Screen Assay; format: biochemical; details: values not marked with "*"; read-out: Akt1 IC50, (AlphaScreen)
Procedure, shortened: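 AlphaScreen read-out (excitation 640 nm, emission 570 nm) after 90 min incubation at room temperature in the dark. Signal comes from crosstide phosphorylation by AKT1, which was activated by added PDK1, MAPKAPK2, ATP and lipid vesicles, captured via phospho-AKT substrate antibody and streptavidin beads.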

A2780 = test: MTS Assay, cell proliferation, A2780; format: cell-based; details: Homo sapiens, read-out: Average of [CELL], IC50, MTS (72 hours; 10 Percent; FBS) A2780
Description: (§1) Cell proliferation analysis. Cell survival was determined by the MTS assay. Briefly, cells were plated in a 96-well plate at 2,000-10,000 cells per well, cultured for 24 hours in complete growth medium, and then treated with various drugs and drug combinations for 72 hours. MTS was added and incubated for 4 hour, followed by assessment of cell viability using the microplate reader at 570 nm. Data were normalized to untreated controls and analyzed with Microsoft Excel.

AN3CA = test: MTS Assay, cell proliferation, AN3CA; format: cell-based; details: Homo sapiens, AN3-CA, read-out: Average of [CELL], IC50, MTS (72 hours; 10 Percent; FBS) AN3CA
Description: as §1

BT474 = test: MTS Assay, cell proliferation, BT474; format: cell-based; details: Homo sapiens, BT-474, read-out: Average of [CELL], IC50, MTS (72 hours; 10 Percent; FBS) BT474
Description: as §1

LnCap = test: MTS Assay, cell proliferation, LnCap; format: cell-based; details: Homo sapiens, read-out: Average of [CELL], IC50, MTS (72 hours; 10 Percent; FBS) LnCap
Description: as §1

Zr75-1 = test: MTS Assay, cell proliferation, Zr75-1; format: cell-based; details: Homo sapiens, ZR-75-1, read-out: Average of [CELL], IC50, MTS (72 hours; 10 Percent; FBS) Zr75-1
Description: as §1

T1 sequence (P31749 whole entry): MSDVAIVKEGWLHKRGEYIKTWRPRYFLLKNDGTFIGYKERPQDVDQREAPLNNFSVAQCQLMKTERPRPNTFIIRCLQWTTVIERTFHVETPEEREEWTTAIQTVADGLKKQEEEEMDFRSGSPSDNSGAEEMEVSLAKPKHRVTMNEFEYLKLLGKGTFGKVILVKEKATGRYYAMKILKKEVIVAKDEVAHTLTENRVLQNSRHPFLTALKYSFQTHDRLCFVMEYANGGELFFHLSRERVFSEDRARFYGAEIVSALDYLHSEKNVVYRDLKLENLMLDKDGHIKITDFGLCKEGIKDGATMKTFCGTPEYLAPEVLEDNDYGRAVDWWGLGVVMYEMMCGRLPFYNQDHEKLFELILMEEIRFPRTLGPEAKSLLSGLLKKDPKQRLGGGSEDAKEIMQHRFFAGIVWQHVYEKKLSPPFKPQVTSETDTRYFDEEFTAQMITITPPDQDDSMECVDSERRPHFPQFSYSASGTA

SMILES | IC50 [1] [µM] | IC50 [2] [µM] | IC50 (A2780) [µM] | IC50 (AN3CA) [µM] | IC50 (BT474) [µM] | IC50 (LnCap) [µM] | IC50 (Zr75-1) [µM]
Nc1ncccc1-c1nc2cccnc2n1-c1ccc(-n2cncn2)cc1 [Example 31] | 22.1 |  |  |  |  |  | 
CC(C(=O)NCc1ccc(-n2c(-c3cccnc3N)nc3cccnc32)cc1)c1ccccc1 (centres unmarked) [Example 51, N-{4-[2-(2-aminopyridin-3-yl)-3H-imidazo[4,5-b]pyridin-3-yl]benzyl}-2-phenylpropanamide] | 82.8 |  |  |  |  |  | 
Nc1ncccc1-c1nc2cccnc2n1-c1ccc(CC(=O)Nc2ccc(Cl)cn2)cc1 [Example 117, 2-{4-[2-(2-aminopyridin-3-yl)-3H-imidazo[4,5-b]pyridin-3-yl]phenyl}-N-(5-chloropyridin-2-yl)acetamide] | 3.96 |  |  |  |  |  | 
CCCCNC(=O)Cc1ccc(-n2c(-c3cccnc3N)nc3cccnc32)cc1 [Example 132, 2-{4-[2-(2-aminopyridin-3-yl)-3H-imidazo[4,5-b]pyridin-3-yl]phenyl}-N-butylacetamide] | 6.84 |  |  |  |  |  | 
Nc1ncccc1-c1nc2cc(-c3ccccc3Br)cnc2n1-c1ccc(CNC(=O)c2ccccc2)cc1 [Example 136, N-{4-[2-(2-aminopyridin-3-yl)-6-(2-bromophenyl)-3H-imidazo[4,5-b]pyridin-3-yl]benzyl}benzamide] | 7.1 |  |  |  |  |  | 
Nc1ncccc1-c1nc2cc(-c3ccc(F)cc3)cnc2n1-c1ccc(CNC(=O)c2ccccc2)cc1 [Example 141, N-{4-[2-(2-aminopyridin-3-yl)-6-(4-fluorophenyl)-3H-imidazo[4,5-b]pyridin-3-yl]benzyl}benzamide] | 7.8 |  |  |  |  |  | 
Cc1ccc(-c2cnc3c(c2)nc(-c2cccnc2N)n3-c2ccc(CNC(=O)c3ccccc3)cc2)cc1 [Example 144, N-{4-[2-(2-aminopyridin-3-yl)-6-(4-methylphenyl)-3H-imidazo[4,5-b]pyridin-3-yl]benzyl}benzamide] | 4.5 |  |  |  |  |  | 
Nc1ncccc1-c1nc2cc(Br)cnc2n1-c1ccc(CNS(=O)(=O)c2ccc3ccccc3c2)cc1 [Example 157, N-{4-[2-(2-aminopyridin-3-yl)-6-bromo-3H-imidazo[4,5-b]pyridin-3-yl]benzyl}naphthalene-2-sulfonamide] | 8.1 |  |  |  |  |  | 
Nc1ncccc1-c1nc2cccnc2n1-c1ccc(C(=O)NCc2ccccc2)cc1 [Example 178, 4-[2-(2-aminopyridin-3-yl)-3H-imidazo[4,5-b]pyridin-3-yl]-N-benzylbenzamide] | 7.1 |  |  |  |  |  | 
CC(=O)Nc1cccc(-c2ccc3nc(-c4cccnc4N)n(-c4ccc(CC(=O)Nc5ccccc5)cc4)c3n2)c1 [Example 261, 2-(4-(5-(3-acetamidophenyl)-2-(2-aminopyridin-3-yl)-3H-imidazo[4,5-b]pyridin-3-yl)phenyl)-N-phenylacetamide] |  | 0.013 | 3.3 | 2.2 | 1.3 | 1.9 | 
CC(=O)Nc1cccc(-c2ccc3nc(-c4cccnc4N)n(-c4ccc(CNC(=O)c5ccccc5)cc4)c3n2)c1 [Example 287, N-(4-(5-(3-acetamidophenyl)-2-(2-aminopyridin-3-yl)-3H-imidazo[4,5-b]pyridin-3-yl)benzyl)benzamide] |  | 0.014 | 1.6 | 1.5 | 1.2 | 2 | 
CC(=O)Nc1cccc(NC(=O)Cc2ccc(-n3c(-c4cccnc4N)nc4ccc(-c5cccc(NC(C)=O)c5)nc43)cc2)c1 [Example 289, N-(3-acetamidophenyl)-2-(4-(5-(3-acetamidophenyl)-2-(2-aminopyridin-3-yl)-3H-imidazo[4,5-b]pyridin-3-yl)phenyl)acetamide] |  | 0.0063 | 10 | 12 | 3.2 | 17 | 
CC(=O)Nc1cccc(-c2ccc3nc(-c4cccnc4N)n(-c4ccc(CC(=O)Nc5ccc6nc(C)ccc6c5)cc4)c3n2)c1 [Example 290, 2-(4-(5-(3-acetamidophenyl)-2-(2-amino-pyridin-3-yl)-3H-imidazo[4,5-b]pyridin-3-yl)phenyl)-N-(2-methylquinolin-6-yl)acetamide] |  | 0.012 | 3.8 | 1.1 | 0.62 | 2.1 | 
CC(=O)Nc1ccc(-c2ccc3nc(-c4cccnc4N)n(-c4ccc(CNC(=O)c5ccc(C)c(F)c5)cc4)c3n2)cc1 [Example 292, N-(4-(5-(4-acetamidophenyl)-2-(2-aminopyridin-3-yl)-3H-imidazo[4,5-b]pyridin-3-yl)benzyl)-3-fluoro-4-methylbenzamide] |  | 0.096 | 7.4 | 2.3 | 0.94 | 0.73 | 
CC(=O)Nc1cccc(-c2ccc3nc(-c4cccnc4N)n(-c4ccc(CC(=O)Nc5cccc(F)c5)cc4)c3n2)c1 [Example 294, 2-(4-(5-(3-acetamidophenyl)-2-(2-aminopyridin-3-yl)-3H-imidazo[4,5-b]pyridin-3-yl)phenyl)-N-(3-fluorophenyl)acetamide] |  | 0.016 | 3.3 | 1.7 | 1.1 | 0.95 | 
Cc1cnc2c(c1)nc(-c1cccnc1N)n2-c1ccc(CC(=O)Nc2ccc3ncccc3c2)cc1 [Example 295, 2-(4-(2-(2-aminopyridin-3-yl)-6-methyl-3H-imidazo[4,5-b]pyridin-3-yl)phenyl)-N-(quinolin-6-yl)acetamide] |  | 0.076 | 3.8 | 3.3 | 5 | 1.8 | 
CC(=O)Nc1cccc(-c2ccc3nc(-c4cccnc4N)n(-c4ccc(CC(=O)NC(C)C)cc4)c3n2)c1 [Example 296, 2-(4-(5-(3-acetamidophenyl)-2-(2-aminopyridin-3-yl)-3H-imidazo[4,5-b]pyridin-3-yl)phenyl)-N-isopropylacetamide] |  | 0.095 | 33 | 12 | 6.9 | 3.9 | 
CCCCNC(=O)Cc1ccc(-n2c(-c3cccnc3N)nc3ccc(-c4cccc(NC(C)=O)c4)nc32)cc1 [Example 297, 2-(4-(5-(3-acetamidophenyl)-2-(2-aminopyridin-3-yl)-3H-imidazo[4,5-b]pyridin-3-yl)phenyl)-N-butylacetamide] |  | 0.035 | 15 | 6.5 | 3.6 | 3 | 
Nc1ncccc1-c1nc2ccc(-c3cn[nH]c3)nc2n1-c1ccc(CNC(=O)c2cccc(F)c2)cc1 [Example 305, N-(4-(2-(2-aminopyridin-3-yl)-5-(1H-pyrazol-4-yl)-3H-imidazo[4,5-b]pyridin-3-yl)benzyl)-3-fluorobenzamide] |  | 0.012 | 6.8 | 12 | 4.2 | 13 | 8.2
Nc1ncccc1-c1nc2ccc(-c3ccoc3)nc2n1-c1ccc(CNC(=O)c2cccc(F)c2)cc1 [Example 307, N-(4-(2-(2-aminopyridin-3-yl)-5-(furan-3-yl)-3H-imidazo[4,5-b]pyridin-3-yl)benzyl)-3-fluorobenzamide] |  | 0.035 | 2.9 | 6.3 | 3.6 | 4.9 | 9.1
Nc1ncccc1-c1nc2ccc(-c3cccnc3)nc2n1-c1ccc(CNC(=O)c2cccc(F)c2)cc1 [Example 333, N-(4-(2-(2-aminopyridin-3-yl)-5-(pyridin-3-yl)-3H-imidazo[4,5-b]pyridin-3-yl)benzyl)-3-fluorobenzamide] |  | 0.1 | 13 | 12 | 6.1 | 5.7 | 
